Consider twelve molecules from patent US9096565B2, “Inhibitors of histone deacetylase” (MethylGene Inc., priority 2007, dated 2015).

For this experiment, the target named is one or more of HDAC-4, HDAC-5, HDAC-6, HDAC-7, HDAC-8, HDAC-9, HDAC-10 and HDAC-11. The experiment can be described thus: Inhibition of histone deacetylase enzymatic activity (summary statement over isoforms). The format is biochemical. Conditions: Table 3, selected examples; HDAC isoform not given. In outline: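 HDAC enzyme mix with compound was preincubated 5 min at room temperature. Reaction was started at 37 °C with Boc-Lys(trifluoroacetyl)-AMC substrate and run 20-30 min. It was stopped with trypsin (1 mg/mL) plus a known HDAC inhibitor to release the fluorogenic AMC.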

One may read the IC50 as the concentration that inhibits the measured activity by half. Higher therefore signals a need for much substance. `O=C(CCC1CCCCC1)Nc1ccc(C(C(=O)NO)c2ccccc2)cc1` (stereo not drawn) [Compound 2-70, 3-cyclohexyl-N-(4-(2-(hydroxyamino)-2-oxo-1-phenylethyl)phenyl)propanamide] yielded a half-inhibitory concentration (IC50) of less than 1000 nM.
The molecule `O=C(NO)C(c1ccccc1)c1nnc(-c2cccs2)s1` (stereo not drawn) [Compound 5-4, N-hydroxy-2-phenyl-2-(5-(thiophen-2-yl)-1,3,4-thiadiazol-2-yl)acetamide] yielded an IC50 of less than 1000 nM.
As for `O=C(NO)C(c1ccccc1)N1CCC2(CC1)OCCO2` (stereo not drawn) [Compound 2-41, N-hydroxy-2-phenyl-2-(1,4-dioxa-8-azaspiro[4.5]decan-8-yl)acetamide], the figure is 1000 to 15000 nM.
In the case of `CC(C)CC(=O)Nc1cccc(C(C(=O)NO)c2ccccc2)c1` (stereo not drawn) [Compound 2-54, N-(3-(2-(hydroxyamino)-2-oxo-1-phenylethyl)phenyl)-3-methylbutanamide], the 50% inhibitory concentration (IC50) was in the range of 1000 to 15000 nM.
The value for `O=C(NO)C(c1ccccc1)c1cccc(Nc2ccccc2)c1` (stereo not drawn) [Compound 3-73, N-hydroxy-2-phenyl-2-(3-(phenylamino)phenyl)acetamide] was 1000 to 15000 nM; that for `O=C(NO)C(c1ccccc1)N1CCN(c2ncc(-c3ccccc3)cn2)CC1` (stereo not drawn) [Compound 5-11, N-hydroxy-2-phenyl-2-(4-(5-phenylpyrimidin-2-yl)piperazin-1-yl)acetamide] was less than 1000 nM; that for `O=C(NO)C(c1ccc2c(c1)CCO2)c1ccc2c(c1)CCO2` [Compound 1-8, 2,2-bis(2,3-dihydrobenzofuran-5-yl)-N-hydroxyacetamide] was less than 1000 nM.
The value for `CCc1ccc(-c2ccc(C(C(=O)NO)c3ccccc3)cc2)cc1` (stereo not drawn) [Compound 2-111, 2-(4′-ethylbiphenyl-4-yl)-N-hydroxy-2-phenylacetamide] was less than 1000 nM.
`CC(C)(C)C(=O)N1CCCN(C(C(=O)NO)c2ccccc2)CC1` (stereo not drawn) [Compound 2-24, N-hydroxy-2-phenyl-2-(4-pivaloyl-1,4-diazepan-1-yl)acetamide] returned an IC50 of 1000 to 15000 nM.
Turning to `O=C(NO)C(c1ccc(F)cc1)c1ccc(F)cc1` [Compound 1-18, 2,2-bis(4-fluorophenyl)-N-hydroxyacetamide], the IC50 was less than 1000 nM.
The value for `CCC(CC)COc1cccc(C(C(=O)NO)c2ccccc2)c1` (stereo not drawn) [Compound 3-31, 2-(3-(2-ethylbutoxy)phenyl)-N-hydroxy-2-phenylacetamide] was 1000 to 15000 nM.
Molecule `CC(=O)Nc1ccc(C(C(=O)NO)c2ccccc2)cc1` (stereo not drawn) [Compound 3-13, 2-(4-acetamidophenyl)-N-hydroxy-2-phenylacetamide] showed a 50% inhibitory concentration (IC50) of less than 1000 nM.
